Where “and” joins values, the source holds several entries; their conditions need not be identical. Identical values can stand only once.
How the values were obtained:
[1] = test system: Meat Normal Flora; assay: Un-inoculated meat exposed to CO2 in a supercritical fluid extractor, bacterial plate count; format: cell-based; conditions: for CFU/g / Logs: control 7.53 logs, listed as CO2
Procedure: (§1) Each meat sample was placed into a sterile bag and weighed, a known volume of sterile buffer was added as a diluent and the meat sample homogenized in a ‘Stomacher’. This suspension was then further diluted as 1:10 dilutions and duplicate 1 ml samples were plated onto the surface of agar media formulated for the enumeration of E. coli 0157. The bacterial levels were recorded as colony forming units CFU per g. or as log 10 of that number.
The above experiments used the most exacting conditions available given the reactor equipment. The survival of natural microflora of meat when treated with carbon dioxide in the super critical range was also investigated.
In the Dairy Science chemistry research lab in Call Hall (KSU), equipment is available to achieve temperatures and pressures above the critical point of carbon dioxide (a Pepmaster GA made by the Suprex Corp.). This device is mainly used for lipid extraction from natural materials prior to further analysis.
The tests were undertaken to determine the efficacy of supercritical carbon dioxide using laboratory equipment shown schematically in FIGS. 8 and 9.
The sample cells 2 in parallel hold about 4 gr of sample which is sufficient to do microbial analysis and the equipment could control pressure up to about 7500 psig, temperature (above ambient), and time. Introduction of E. coli 0157 meat into the lab was not possible. […]

[2] = test system: E. coli 0157; assay: Inoculated meat cubes treated with carbon dioxide in high pressure reactor, E. coli 0157 plate count; format: cell-based
Procedure: To carry out the experiments, a high pressure reactor was designed to the following specifications. • A vessel built to withstand about 3000 psig with top and bottom vents for the addition/venting of carbon dioxide gas as required. • An analog pressure gauge. • A digital temperature recorder on the top vent from the vessel. • A pH probe that could be raised/lowered into the center of the reactor top. • A supply of liquid carbon dioxide at about 300 psi and −20° C. • A supply of gaseous carbon dioxide heated to about 56° C. in a hot water bath. • A supplementary probe to measure the temperature of the reactor barrel surface. • Lap top computer to record temperature data.
FIG. 8 is a schematic illustration of laboratory equipment 800 used in carrying out various tests of the treatment of meat with carbon dioxide. The apparatus 800 includes pressure cylinders 804, 806, and 808 with high-pressure piping 824, pressure release safety valve 828 and on/off valves 812, 814, 816, 818, 820, and 822. Meat samples, having been inoculated, are suspended from a centrally located shaft within the cylinder 804 and the upper member 802 is bolted to the cylinder 804 in a manner that substantially ensures a leak-proof and pressure tight seal. A stream of fluid carbon dioxide 824 that progressively turns to liquid is transferred into the cylinder 804 until the suspended meat samples therein are immersed in the liquid carbon dioxide. After a recorded and selected period of time, the liquid carbon dioxide is removed from the cylinder 804 and the pressure therein reduced to ambient atmospheric pressure. The samples can then be removed from the cylinder and the reduction of bacteria population determined. The items 806 and 808 are commonly referred to as an intensifier. Opening valve 812 allows filling the cylinder 806 with low pressure fluid carbon dioxide, and then, after isolation of the lower pressure source of the fluid carbon dioxide, a piston in cylinder 808 is activated by hydraulic oil from line 826 (or high-pressure air or gas) and a smaller diameter piston in cylinder 806 compresses the fluid carbon dioxide and elevates the pressure. The higher pressure carbon dioxide fluid in line 824 is then transferred to cylinder 804 via a selected path through high-pressure piping 824 as shown.
Cell cultures were grown overnight in a nutrient broth. The cells were separated by centrifugation and washed in a sterile buffer. The E. coli cell suspension was then diluted to give log 7-9 cell per ml.
Meat was purchased at a local retail store. The meat was aseptically cut into 1 inch cubes and suspended by attachment to sterile fish hooks. Meat samples were then placed into an inoculation chamber where they were sprayed with about 10 mls of the cell inoculum. This was done ensuring that all 6 sides of each piece of meat received the same exposure to the E. coli. The samples were then allowed to stand for about 30 minutes at room temperature to achieve the attachment of the E. coli to the meat. One of these meat samples was immediately taken and analyzed for E. coli (as a control). The remaining inoculated samples were then placed into the reactor and the experiment started.
One (1) inch meat cube samples were suspended from the pH probe using small fishing hooks and line so that the cubes were suspended in the bottom third of the reactor and were neither touching each other nor the walls of the vessel.
as §1
The methodology was as stated above. The reactor contained inoculated meat. […]

[3] = Experiment 4: 1470 psi @ 29° C., 5 min
[4] = Experiment 4: 3000 psi @ 29° C., 5 min
[5] = Experiment 1: 300-1000 psi, 10 min
[6] = Experiment 3: 1000 psi @ 13° C. held 4 hours, analyzed immediately, control 7.87 logs, listed as Liquid CO2

O=C=O [carbon dioxide]
log bacteria reduction versus control ([1]; Experiment 4: 1470 psi @ 29° C. (line 21B)): ~1 log
CFU/g [1, 3]: 5,233,644.9 CFU/g and 9,523,809.5 CFU/g
Logs [1, 3]: 6.72 Logs and 6.98 Logs
log bacteria reduction versus control ([1]; Experiment 4: 3000 psi @ 29° C. (lines 22C and 23D)): ~1 log
CFU/g [1, 4]: 9,029,345.4 CFU/g and 5,154,639.2 CFU/g
Logs [1, 4]: 6.96 Logs and 6.71 Logs
log bacteria after the test ([1]; Experiment 5: 3000 psi, 36° C., 5 min (mean of replicates)): 5.53 log
log reduction versus control ([1]; Experiment 5: supercritical, 3000 psi, 36° C., 5 min): ~2 log and 1.83 log
average of the 3 test samples [2, 5]: 7.22 log
log reduction versus control [2, 5]: 0.47 log
average of the test samples ([2]; Experiment 2: -17° C. at 300 psig, then 1000 psig 5 min): 6.5 log
log reduction versus control ([2]; Experiment 2: -17° C. at 300 psig, then 1000 psig 5 min, meat frozen, listed as Liquid CO2): ~1 log and 1.27 log
CFU/g [2, 6]: 8,741,258.7 CFU/g and 14,344,362.3 CFU/g and 8,467,741.9 CFU/g
Logs [2, 6]: 6.94 Logs and 7.16 Logs and 6.93 Logs
log reduction versus control ([2]; Experiment 3: 1000 psig 4 hours, analyzed immediately): ~1 log and 0.86 log
further log kill by storage ([2]; Experiment 3: storage in about 100% carbon dioxide at about 4° C. for 4 days after treatment): 2.83 log
destruction of E. coli 0157 on meat surfaces ([2]; liquid carbon dioxide in the sub critical range alone): no practical significance
log kill with liquid carbon dioxide ([2]; liquid carbon dioxide, experiment not specified): ~0.5 log

From patent US20120118175A1, “TREATMENT TO REDUCE MICROORGANISMS WITH CARBON DIOXIDE BY MULTIPLE PRESSURE OSCILLATIONS” (SAFEFRESH TECHNOLOGIES, LLC, priority 2004, published 2012)
